# Article PMC12444563 (ACS Omega, 2025)
# Like-named read-outs stand apart in the source and are kept apart here.
# Key:
# [1] = Liver S9 fraction stability assay, human; type: in vitro ADME; settings: male, liver S9 fraction, 37 °C, read-out: S9 stability (matrix: human) % remaining
# Description: The plasma stability assays were performed by Selvita SA (Krakow, Poland) following the protocol described in the Supporting Information. For the use of human plasma, consent was obtained from the subject or from the next of kin.
# 9. Plasma stability assays […]
# Protocol for S9 fraction: a stock solution of compounds 1-4 in DMSO was incubated in human (male, pooled, commercially obtained from Xeno-tech lot: 2310104) and rat (male, pooled, commercially obtained from Xeno-tech (lot: 2210317)) S9 fraction at a final concentration of 1 μM (final concentration of DMSO = 0.5 %). The samples were incubated at 37 °C with a shaking of 450 rpm.
# Aliquots of the samples were analyzed at time 0, 30 and 90 minutes by LC-MS/MS analysis.
# The areas of the peak of the compounds 1-4 in the LC chromatogram were used to evaluate stability profile. The percentage of residual compounds 1-4 was calculated as the ratio between the area of the peak of the analyte and the area of the internal standard.
# % residual compound = Area analyte ∙ 100
# Table S7. LC-MS data of the stability assays in plasma extracts of compound 1.
# Stability assays compound 1
# Time Plasma stability Plasma stability S9 stability S9 stability
# (min.) (matrix: rat) (matrix: human) Time (min.) (matrix: rat) (matrix: human) % remaining % remaining % remaining % remaining
# Table S8. LC-MS data of the stability assays in plasma extracts of compound 2.
# Stability assays compound 2
# [2] = pH stability assay (buffers pH 5.4 and 7.4, UHPLC-HRMS); type: physicochemical; settings: 37 °C, average of two replicates; for Stability pH 7.4, % residual compound: pH 7.4 PBS
# Description: The pH stability assay was performed by incubating compounds 1–4 at 37 °C in buffers at pH 5.4 and 7.4 under gentle shaking conditions. More specifically, a solution of 20 mM AcONa and 1 mM EDTA in mQ water was used as a pH 5.4 buffer. A solution of PBS tablets in mQ water was used as a pH 7.4 buffer. A 1 mM stock solution of compounds 1–4 in dry DMSO was prepared and a […] solution was then obtained by dilution of 5.85 μL of the stock solution in 44.15 μL of dry DMSO. Then, 6 μL of the […] compound solution was diluted into 135 μL of the desired buffer, and the solution was incubated at 37 °C under gently shaking conditions. Samples aliquots (10 μL) were taken out at 15, 30 min and 1, 2, and 4 h and quenched with 10 μL of acetonitrile. The solutions were then injected in UHPLC-HRMS to monitor the stability of compounds 1–4 under different pH conditions. UHPLC-MS analyses were carried out as previously described for the Cathepsin B cleavage assay. The percentage of the residual compound was calculated as described above.
# The stability of compounds 1–4 and of the free drug PTX was evaluated in vitro by UHPLC-Orbitrap analysis incubating the samples at 37 °C in buffer solutions at pH 5.4, to simulate the pH inside the cancer cells, and at physiological pH 7.4. The same buffer of the Cathepsin B cleavage assay was used for the test at pH 5.4. The percentage of residual compounds 1–4 was measured over time by calculating the ratio between the areas of the peak of the full compound at the desired time point and at time zero, and the results were compared with the percentage of residual compounds 1–4 calculated during the Cathepsin B cleavage assay (Tables S6).
# [3] = target: T1, bovine spleen Cathepsin B (Bos taurus, UniProt P07688); assay: Cathepsin B cleavage assay (UHPLC-HRMS Orbitrap analysis); type: biochemical; settings: for % residual compound, Average %: 37 °C, pH 5.4, 5 μM, triplicate
# T1 construct: bovine spleen Cathepsin B (SigmaAldrich C6286, ≥10 units/mg protein); purchased SigmaAldrich C6286; host or cells: bovine spleen (tissue-derived)
# Description: The Cathepsin B cleavage assay was performed by incubating compounds 1–4 at 37 °C under gently shaking conditions in the presence of the active form of Cathepsin B. More specifically, 122.4 μL of an enzyme-activating solution (composed of 7.48 mg of L-cysteine dissolved in 2 mL of a buffer solution containing 20 mM NaOAc, 1 mM EDTA, pH 5.4 to give a final cysteine concentration of 30.88 mM) was mixed with 12.6 μL of enzyme stock solution, previously prepared by solubilization of bovine spleen Cathepsin B (SigmaAldrich C6286, ≥10 units/mg protein) in 1 mL of buffer solution (without cysteine) to give a concentration of enzyme stock solution of 12 units/mL. After the dilution, the final concentration of Cathepsin B was 1.12 u/mL. Then, the diluted enzyme solution was incubated at 37 °C for 15 min to activate Cathepsin B. After 15 min, 6 μL of 117 μM compound solution, previously prepared by diluting 5.85 μL of 1 mM stock solution of the compound in 44.15 μL of dry DMSO (giving a 117 μM solution), was added to the test tube and the cleavage assay solution was incubated at 37 °C under gentle shaking conditions. […] The solutions were then centrifuged for 10 min at 6000 rpm. Blank solutions were prepared for each compound by dilution of 6 μL of a 117 μM compound solution into 135 μL of an enzyme-activating solution. UHPLC-MS analyses were carried out using a Vanquish UHPLC System (Thermo Fisher Scientific) and Orbitrap Exploris 120 (Thermo Fisher Scientific). Thermo Scientific Xcalibur software was used to control the instruments and acquire the data. Freestyle 1.8 software was used for processing the data. UHPLC chromatographic separations were performed on a reversed-phase column Accucore C18 50 × 2.1 mm, 2.6 μm (Thermo Fisher Scientific). A gradient system was used with the mobile phase consisting of solvent A: H2O + 0.05% formic acid and solvent B: acetonitrile. The areas of the peak of compounds 1–4 in the extracted ion chromatogram were used to evaluate the kinetics of the cleavage process. The percentage of residual compound was calculated as the ratio between the areas of the peak of the full compound at the desired time point and in the blank analysis. %Residualcompound=areacompoundatthedesiredtimepoint/areacompoundintheblanksolution×100
compound,measurement,setting,value
"CC(=O)O[C@H]1C(=O)[C@@]2(C)[C@H]([C@H](OC(=O)c3ccccc3)[C@]3(O)C[C@H](OC(=O)[C@H](OC(=O)N(C)CCN(C)C(=O)OCc4ccc(NC(=O)[C@H](CCCNC(N)=O)NC(=O)[C@@H](NC(=O)OCC5c6ccccc6-c6ccccc65)C(C)C)cc4)[C@@H](NC(=O)c4ccccc4)c4ccccc4)C(C)=C1C3(C)C)[C@]1(OC(C)=O)CO[C@@H]1C[C@@H]2O [Compound 3, Fmoc-VCit-PABC-diamine-PTX]","remaining at 0.5 h, 1 μM",[1]; 30 min,133%
same,"remaining at 1.5 h, 1 μM",[1]; 90 min (1.5 h),95.2%
same,"remaining at 4 h, 4.98 µM","[2]; PBS pH 7.4, pH 7.4, pH 7.4 PBS, 240 min, read-out: Stability pH 7.4, % residual compound",92%
same,"remaining at 2 h, 4.98 µM","[2]; acetate/EDTA buffer pH 5.4, pH 5.4, pH 5.4 buffer, 120 min, read-out: Stability pH 5.4, % residual compound",96.6%
same,"remaining at 4 h, 4.98 µM","[2]; acetate/EDTA buffer pH 5.4, pH 5.4, pH 5.4 buffer, 240 min (4 h), read-out: Stability pH 5.4, % residual compound",89.9%
same,"Stability pH 5.4, % residual compound","[2]; pH 5.4 buffer, 30 min",96.15%
same,"Stability pH 7.4, % residual compound",[2]; 30 min,95.79%
same,"Stability pH 7.4, % residual compound",[2]; 120 min,95.93%
same,"% residual compound, Average %",[3]; 2 min incubation with Cathepsin B,99.48%
same,"% residual compound, Average %",[3]; 15 min incubation with Cathepsin B,89.60%
same,"% residual compound, Average %",[3]; 30 min incubation with Cathepsin B,88.90%
same,"% residual compound, Average %",[3]; 60 min incubation with Cathepsin B,82.88%
same,"% residual compound, Average %",[3]; 120 min incubation with Cathepsin B,80.39%
same,"% residual compound, Average %",[3]; 240 min (4 h) incubation with Cathepsin B,76%
same,"% residual compound, % R1","[3]; replicate R1, 2 min",91.44%
same,"% residual compound, % R1","[3]; replicate R1, 15 min",87.83%
same,"% residual compound, % R1","[3]; replicate R1, 30 min",70.58%
same,"% residual compound, % R1","[3]; replicate R1, 60 min",80.56%
same,"% residual compound, % R1","[3]; replicate R1, 120 min",76.58%
same,"% residual compound, % R1","[3]; replicate R1, 240 min",81.21%
same,"% residual compound, % R3","[3]; replicate R3, 2 min",106.03%
same,"% residual compound, % R3","[3]; replicate R3, 15 min",90.55%
same,"% residual compound, % R3","[3]; replicate R3, 30 min",97.99%
same,"% residual compound, % R3","[3]; replicate R3, 60 min",89.93%
same,"% residual compound, % R3","[3]; replicate R3, 120 min",81.32%
same,"% residual compound, % R3","[3]; replicate R3, 240 min",71.70%
